Test results as given in patent US5006554A, “Organotin compounds” (The United States of America as represented by the …, priority 1989, dated 1991).

Legend:
[1] = Degradation on exposure to direct sunlight in quartz tubes (loss of compound after 48 h, GC MS); assay type: physicochemical; details: for loss of compound: exposure to direct sunlight, quartz tubes, seawater solutions, after 48 h; for stability in seawater relative to tributyltin bromide, presence of light: in words
Method: Degradation tests of the compounds included making ethanol solutions of the organotin bromides that were prepared at a concentration of approximately 1 mg/cm^3. Aliquots of the ethanol solutions were added to either 3.5% sodium bromide (NaBr) containing 1% acetone or to filtered seawater to obtain approximately 1-5 ppm concentrations in the seawater. […] Aliquots (10 cm^3) of the solutions were extracted at timed intervals with 1 cm^3 hexane after acidification with 0.1 cm^3 concentrated hydrochloric acid (HCl). Samples were analyzed by GC MS.
(§1) Half-lives of 33 days, 17 days and 16 days were estimated for tributyltin bromide, tri-3-butenyltin bromide and tri-1-butenyltin bromide in seawater, protected from UV light and held at a constant room temperature.

[2] = Degradation in seawater protected from UV light at constant room temperature (half-life, GC MS); assay type: physicochemical; details: for stability in seawater relative to tributyltin bromide, absence of light: in words; for Half-life: protected from UV light, constant room temperature, estimated
Method: Degradation tests of the compounds included making ethanol solutions of the organotin bromides that were prepared at a concentration of approximately 1 mg/cm^3. Aliquots of the ethanol solutions were added to either 3.5% sodium bromide (NaBr) containing 1% acetone or to filtered seawater to obtain approximately 1-5 ppm concentrations in the seawater. The sodium bromide (NaBr) solution was placed in 125 cm^3 quartz tubes and exposed to sunlight over 48 h. The seawater solutions were kept in closed 500 cm^3 polycarbonate jars in the laboratory. Aliquots (10 cm^3) of the solutions were extracted at timed intervals with 1 cm^3 hexane after acidification with 0.1 cm^3 concentrated hydrochloric acid (HCl). Samples were analyzed by GC MS.
as §1

[3] = test system: Photobacterium phosphoreum NRRL B-11177; experiment: Microtox toxicity bioassay: reduction in light output by a luminescent bacterium; assay type: cell-based; details: relative to tributyltin bromide, from EC50
Method: Relative toxicity of compounds was determined using a Microtox Toxicity Analyzer Model 2055, manufactured by Microbics Corporation, Carlsbad, Calif., USA. This bioassay measures the relative reduction in light output by a luminescent bacterium, Photobacterium phosphoreum NRRL B-11177, when exposed to a toxicant. The bacteria are provided in a convenient freeze-dried form by Microbics Corporation and are immediately activated by the addition of 1 cm^3 of distilled water.
For Microtox testing, stock solutions of the compounds were prepared in 95% ethanol at approximately 1-2 mg/cm^3 Appropriate amounts of the ethanol solutions were added to 2% aqueous sodium chloride (NaCl) to achieve a workable concentration while keeping the ethanol concentration as low as possible. Typically, the ethanol concentration was about 0.05%.
Serial dilutions of each compound for measurement were performed in the Microtox photometer/incubator at 15° C. Controls consist of triplicate 1 cm^3 portions of 2% sodium chloride and candidate toxics were prepared in and subsequently serially diluted in 2% sodium chloride, with a final volume of 1 cm^3 for each dilution. After a 5-minute period for temperature equilibration, 10 μl of rehydrated bacteria was added to each of the controls and the serial dilutions of the test compound. […]

[4] = Stability and chemical reactivity of the butenyltin compounds (neat, in solvents, in reaction mixture); assay type: physicochemical; details: for stability / reactivity in the synthesis mixture: crude reaction mixture, synthesis side-products; for stability as neat compound and in inert solvents: inert solvents (also ethanol)
Source text: Synthesis of the tetrabutenyltins presented no great difficulty as long as the Grignard reagent was present in large excess to assure complete alkylation. […] Under these conditions alkenyltin compounds were identified containing various numbers of […] groups in the mixture.
The other two tributenyltin bromides were stable as neat compounds, in inert solvents and in ethanol for a reasonable length of time. Chemical reactivity appeared to follow the order allyl > vinyl > alkyl.

Q: Which results are given for `C=CC[CH2][Sn]([Br])([CH2]CC=C)[CH2]CC=C` [tri-3-butenyltin bromide]?
A: loss of compound [1]: ~100%; stability in seawater relative to tributyltin bromide, presence of light [1]: less stable in seawater; stability in seawater relative to tributyltin bromide, absence of light [2]: less stable in seawater; Half-life [2]: 17 days; factor by which less toxic than tributyltin bromide [3]: six; order of chemical reactivity ([4]; allyl > vinyl > alkyl): fell between tri-1-butenyltin bromide, containing vinylic carbons, and tributyltin bromide, the alkyl compound; stability / reactivity in the synthesis mixture [4]: tended spontaneously to form black precipitates during solvent evaporation of the crude mixture; stability as neat compound and in inert solvents [4]: stable as neat compounds and in inert solvents

Q: What does the source list for `CCC[CH2][Sn]([Br])([CH2]CCC)[CH2]CCC` [tributyltin bromide, reference compound]?
A: loss of compound [1]: about 15%; Half-life [2]: 33 days

Q: Which “stability / reactivity in the synthesis mixture” value (shortened to “stability / reactivity”) ([4]; listed as Tri-2-butenyltin bromide) does the source give for `CC=C[CH2][Sn]([Br])([CH2]C=CC)[CH2]C=CC` [tri-2-butenyltin bromide] here?
A: so reactive with the synthesis side-products that it could not be isolated

Q: And the “stability / reactivity” value ([4]; listed as tri-2butenyltin bromide)?
A: highly reactive and therefore transient

Q: What about the “stability sufficient for degradation and toxicity determinations” value ([4]; in words) of the same compound?
A: too reactive for other than structural studies

Q: Which loss of compound [1] does the source give for `CCC=[CH][Sn]([Br])([CH]=CCC)[CH]=CCC` [tri-1-butenyltin bromide] here?
A: about 80%

Q: And the “stability in seawater relative to tributyltin bromide, presence of light” value [1]?
A: less stable in seawater

Q: And the “stability in seawater relative to tributyltin bromide, absence of light” value [2]?
A: less stable in seawater

Q: And the Half-life [2]?
A: 16 days

Q: What about the “factor by which less toxic than tributyltin bromide” value [3] of the same compound?
A: about three

Q: What about the “stability / reactivity” value [4] of the same compound?
A: tended spontaneously to form black precipitates during solvent evaporation of the crude mixture

Q: And the “stability as neat compound and in inert solvents” value [4]?
A: stable as neat compounds and in inert solvents
